Assay results: patent US6818741B2, “Alpha-fetoprotein peptides and uses therof” (CLF Medical Technology Acceleration Program, Inc., priority 2000, dated 2004)
“Also recorded” adds a separate entry of the source. Square brackets hold non-standard residues; d marks the D form. Ends that are not written are not given here. Peptide text beside a SMILES is read from it. Hyp = O=C(O)[C@@H]1C[C@@H](O)CN1

Assays:
[1] = system: E2-stimulated growth of immature mouse uterus; test: Immature mouse uterine growth assay (anti-estrotrophic activity); assay type: in vivo; conditions: for biological activity of gel-filtration fraction: aged peptide, 1 μg i.p.; for dose of maximal (optimal) inhibition of estrogen-stimulated growth of mouse uterus: i.p., dose-response; for effect of 4 M urea treatment on biological activity of stored peptide: stored (aged) peptide, brief treatment with 4 M urea; for inhibition of the uterotrophic effect of estradiol (normalized uterine weight, E2+ Pep vs E2): Pep i.p. one hour before E2, uteri weighed 22 hours later
Description: (§1) Twenty-two hours later, uteri were dissected and weighed. […] (FIG. 1a) Peptide dose-response.
(§2) Immature Mouse Uterine Growth Assay.

[2] = Shelf-life (storage) studies of lyophilized peptide, read out in the immature mouse uterine growth assay; assay type: physicochemical; conditions: for time in storage after which anti-estrotrophic activity was lost (diminished to insignificant levels): lyophilized, −20° C.; for shelf-life: storage in the lyophilized state, tested in immature mouse uterine growth assay
Description: as §1, §2

[3] = Toxicity to mice in the uterine growth assay; assay type: in vivo; conditions: even at an effective dose of 1 mg/mouse
Description: as §2

[4] = system: MCF-7 human breast cancer xenografts; test: Human breast cancer xenograft assay, MCF-7; assay type: in vivo; conditions: E2 implant; peptide 1 μg i.p. twice a day; tamoxifen 50 μg i.p. once a day; 30-day observation; vs E2 alone
Method: (§3) Tumors were implanted as described in Materials and Methods. […] There was a minimum of 5 mice per group. (FIG. 9a) MCF-7 tumors.
Human Breast Cancer Xenograft Assay. A bioassay for anti-breast cancer activity was performed according to Bennett et al. (23;24). Confluent MCF-7 human breast cancer cells were trypsinized into suspension and pelleted by centrifugation at 200× g. The pellet was then solidified into a fibrin clot by exposing it to 10 μl of fibrinogen (50 mg/ml) and 10 μl of thrombin (50 units/ml). The solid mass of MCF-7 cells was then cut into pieces 1.5 mm in diameter. A tumor segment of ˜1.5 mm in diameter was implanted under the kidney capsule of an immunodeficient ICR-SCID male mouse (Taconic Farms) that weighed about 25 g. Estrogen supplementation was accomplished by s.c. implantation of a silastic tubing capsule containing solid E2 inserted on the day of tumor implantation. Peptide was injected i.p. every twelve hours at a dose of 1 μg per mouse. Tumor growth was monitored during survival laparotomy at 10-day intervals by measurement of the diameters of the short (d) and long axes (D) of each tumor, using a dissecting microscope equipped with an ocular micrometer. Tumor volumes were calculated using the formula (π/6)(d)^2D, assuming the tumor shape to be an ellipsoid of revolution around its long axis (D). There were five to seven replicate mice included in each treatment group. Mean tumor volume±standard error in each group was calculated for display of growth curves. Significance of differences between groups were tested using the one-sided Wilcoxon Sum of Ranks Test.

[5] = system: estrogen-receptor-negative MDA-MB-231 human breast cancer xenografts; test: Human breast cancer xenograft assay, MDA-MB-231; assay type: in vivo; conditions: ER− tumor, 30 day observation
[6] = system: tamoxifen-stimulated growth of immature mouse uterus; test: Inhibition of tamoxifen-stimulated growth of immature mouse uterus; assay type: in vivo; conditions: Pep i.p. one hour before Tam, uteri weighed 22 hours later
Description: as §2

[7] = system: T47D human breast cancer xenografts; test: Human breast cancer xenograft assay, T47D; assay type: in vivo; conditions: E2 supplementation; 30-day observation; vs E2 alone
[8] = target: T1, estrogen receptor (Oryctolagus cuniculus, UniProt G1SML6); test: Assessment of estrogen receptor antagonism ([3H]E2 binding, uterine cytosol); design: species or system rabbit; conditions: for interference with E2 binding to its receptor: peptide concentration range 10^−10 M to 10^−5 M
T1 sequence (G1SML6 1-598): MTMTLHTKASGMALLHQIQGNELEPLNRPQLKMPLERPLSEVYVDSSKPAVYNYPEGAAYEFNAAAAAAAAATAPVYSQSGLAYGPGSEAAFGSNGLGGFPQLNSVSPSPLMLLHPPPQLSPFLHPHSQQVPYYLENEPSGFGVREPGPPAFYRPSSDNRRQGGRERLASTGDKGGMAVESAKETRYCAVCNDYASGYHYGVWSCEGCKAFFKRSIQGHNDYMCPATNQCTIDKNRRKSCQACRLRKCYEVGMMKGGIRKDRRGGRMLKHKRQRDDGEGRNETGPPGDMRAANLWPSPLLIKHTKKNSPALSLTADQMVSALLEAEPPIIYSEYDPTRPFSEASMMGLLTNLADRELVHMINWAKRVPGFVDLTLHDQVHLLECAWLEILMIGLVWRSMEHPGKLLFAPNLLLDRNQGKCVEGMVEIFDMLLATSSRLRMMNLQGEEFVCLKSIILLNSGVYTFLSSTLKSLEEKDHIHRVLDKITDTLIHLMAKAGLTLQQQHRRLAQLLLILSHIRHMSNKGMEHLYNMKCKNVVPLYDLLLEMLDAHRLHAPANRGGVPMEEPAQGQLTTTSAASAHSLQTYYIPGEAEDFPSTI
Method: Assessment of Estrogen Receptor Antagonism. Commercially obtained rabbit uteri (Pel-Freez Biological, Rogers, Ark.) were used as a source of estrogen receptor. […] Total count tubes received 20 μl of [^3H] estradiol and 180 μl of assay buffer.

[9] = system: MCF-7/Tam human breast cancer xenografts; test: Human breast cancer xenograft assay, tamoxifen-resistant MCF-7 subline; assay type: in vivo; conditions: E2 implant; peptide 1 μg i.p. twice a day; tamoxifen 50 μg i.p. once a day; day 30; vs E2 alone
Method: as §3
Cell Lines. T47D and MDA-MB-231 human breast cancer cell lines were purchased from the American Type Culture Collection (Manassas, Va.). Growth medium for T47D cells consisted of RPMI 1640 (Life Technologies, Germantown, Md.) supplemented with 10% fetal bovine serum (Life Technologies) and 8 μg/ml bovine insulin (Sigma, St. Louis, Mo.). Growth medium for MDA-MB-231 consisted of Dulbecco's Modified Eagle Medium (Life Technologies) supplemented with L-glutamine (2 mM), non-essential amino acids (1%, Life Technologies) and bovine insulin (1 μg/ml). The MCF-7 cell line was obtained from Dr. Alberto C. Baldi, Institute of Experimental Biology and Medicine, Buenos Aires, Argentina, and was maintained as previously describedby Gierthy et al. (1991).
Human Breast Cancer Xenograft Assay. […] Tumor growth was monitored during survival laparotomy at 10-day intervals by measurement of the diameters of the short (d) and long axes (D) of each tumor, using a dissecting microscope equipped with an ocular micrometer. Tumor volumes were calculated using the formula (π/6)(d)^2D, assuming the tumor shape to be an ellipsoid of revolution around its long axis (D). […] Mean tumor volume±standard error in each group was calculated for display of growth curves. […]

[10] = system: growth of the immature mouse uterus; test: Uterotrophic effect of test agent alone on immature mouse uterus; assay type: in vivo; conditions: even at a dose of 10 μg/mouse
Method: Various doses indicated on the abscissa of each test agent were injected i.p. Twenty-two hours later uteri were harvested and weighed.
Immature Mouse Uterine Growth Assay. A bioassay for anti-estrotrophic activity was performed using an immature mouse uterine growth assay (22). Swiss/Webster female mice, 6-8 g in body weight (13-15 days old), were obtained from Taconic Farms (Germantown, N.Y.). […] In a typical experiment, each group received two sequential intraperitoneal injections spaced one hour apart. Test material or vehicle control for that material was contained in the first injectant. Estradiol (E2) or vehicle control for E2 was contained in the second injectant. Twenty-two hours after the second injection, uteri were dissected, trimmed free of mesenteries, and immediately weighed. The uterine weights were normalized to mouse body weights (mg uterine weight/g of body weight) to compensate for differences in body weight among litters of the same age. Experiments employed a minimum of five mice per group, and the mean normalized uterine weight±standard error for each group was calculated. Percent growth inhibition in a test group was calculated from the normalized uterine wet weights as described below.

[11] = Preliminary pharmacokinetic studies in mice; assay type: in vivo, mouse
[12] = tamoxifen users; cited from earlier work

QMTPVNPG [SEQ ID NO: 2: QMTPVNPG, linear octapeptide analog of the AFP octapeptide, N-terminal glutamic acid substituted with glutamine]
biological activity of gel-filtration fraction ([1]; higher molecular weight fraction): biologically inactive
biological activity of gel-filtration fraction ([1]; lower molecular weight fraction): active
dose of maximal (optimal) inhibition of estrogen-stimulated growth of mouse uterus [1]: 1 μg/mouse
effect of 4 M urea treatment on biological activity of stored peptide [1]: restored its biological activity
biological activity of aged peptide ([1]; stored in the lyophilized state at −20° C. for over one year): completely biologically inactive
time in storage after which anti-estrotrophic activity was lost (diminished to insignificant levels) [2]: five and four to five
shelf-life [2]: stored somewhat better than the native octapeptide

cyclo-(EMTPVNPGQ) (head-to-tail cyclization) [head-to-tail cyclized nonapeptide]
inhibition of estrogen-stimulated growth of immature mouse uterus ([1]; at the optimal dose of the linear peptides (1 μg)): very active
effect of 4 M urea treatment on biological activity of stored peptide [1]: restored the optimal biological activity
shelf-life [2]: somewhat extended but still rather limited shelf-life
biological activity after prolonged storage ([2]; storage of six months): significant, albeit not optimal, biological activity

CSCC[C@@H]1NC(=O)[C@H](CCC(=O)O)NC(=O)[C@H](CCC(N)=O)NC(=O)CNC(=O)[C@@H]2C[C@@H](O)CN2C(=O)[C@H](CC(N)=O)NC(=O)[C@H](C(C)C)NC(=O)[C@@H]2C[C@@H](O)CN2C(=O)[C@H]([C@@H](C)O)NC1=O [cyclo-(SEQ ID NO: 5: EMTOVNOGQ), cyclo-(EMTOVNOGQ)] (cyclo(EMT[Hyp]VN[Hyp]GQ))
anti-estrotrophic activity ([1]; doses higher than 10 μg/mouse): retained significant anti-estrotrophic activity
toxicity to the mice [3]: no evidence of toxicity
effect on estrogen-dependent growth (tumor volume) of MCF-7 xenografts [4]: significantly inhibited
shelf-life [2]: indefinite shelf-life

EMTPVNPGQ [SEQ ID NO: 7: EMTPVNPGQ, linear nonapeptide, glutamine residue added to the C-terminus of the native octapeptide]
dose of maximal (optimal) inhibition of estrogen-stimulated growth of mouse uterus [1]: 1 μg/mouse

EMTOVNOG (EMT[Hyp]VN[Hyp]G) [SEQ ID NO: 4: EMTOVNOG, linear octapeptide where O is hydroxyproline (4-hydroxyproline for both prolines)]
inhibition of the uterotrophic effect of estradiol (normalized uterine weight, E2+ Pep vs E2) [1]: inhibited
inhibition of the uterotrophic effect of estradiol (normalized uterine weight, E2+ Pep vs E2) ([1]; listed as AFP-derived peptide): significantly different
dose of maximal (optimal) inhibition of estrogen-stimulated growth of mouse uterus [1]: 1 μg/mouse
effect on growth (tumor volume) of MDA-MB-231 xenografts [5]: no effect
effect on growth (tumor volume) of MDA-MB-231 xenografts ([5]; listed as AFP-derived peptide): no differences in tumor volumes
inhibition of tamoxifen's uterotrophic effect (normalized uterine weight, Tam+ Pep vs Tam) [6]: significantly inhibited
inhibition of tamoxifen's uterotrophic effect (normalized uterine weight, Tam+ Pep vs Tam) ([6]; listed as AFP-derived peptide): significantly different
inhibition of tamoxifen's uterotrophic effect (normalized uterine weight, Tam+ Pep vs Tam) ([6]; listed as Peptide): inhibited
effect on growth (tumor volume) of T47D xenografts [7]: completely prevented tumor growth
interference with E2 binding to its receptor [8]: no interference
interference with E2 binding to its receptor ([8]; listed as linear hydroxyproline-containing octapeptide): did not interfere
effect on growth (tumor volume) of tamoxifen-resistant MCF-7 subline xenografts [9]: completely stopped the growth
uterotrophic effect [10]: no uterotrophic effect whatsoever
effect on estrogen-dependent growth (tumor volume) of MCF-7 xenografts [4]: inhibited; also recorded: no significant increase in tumor volume
biological half-life [11]: two to three
shelf-life [2]: indefinite shelf-life

O=C(c1ccc(OCCN2CCCCC2)cc1)c1c(-c2ccc(O)cc2)sc2cc(O)ccc12 [raloxifene, reference compound]
inhibition of estradiol binding to its receptor ([8]; concentration of 100 nM): completely inhibited

EMTPVNPG [SEQ ID NO: 6: EMTPVNPG, native AFP-derived octapeptide, amino acids 472-479 of alpha-fetoprotein, reference compound]
dose of maximal (optimal) inhibition of estrogen-stimulated growth of mouse uterus [1]: ~1 μg/mouse
effect of 4 M urea treatment on biological activity of stored peptide [1]: regenerated
effect of excipient on shelf-life of the peptide ([2]; excipient: dodecylmaltoside): significantly prolonged shelf-life
effect of excipient on shelf-life of the peptide ([2]; excipient: mannitol): significantly prolonged shelf-life
effect of excipient on shelf-life of the peptide ([2]; excipient: sucrose): did not do so
time in storage after which anti-estrotrophic activity was lost (diminished to insignificant levels) [2]: four to five

CC/C(=C(\c1ccccc1)c1ccc(OCCN(C)C)cc1)c1ccccc1 [tamoxifen, reference compound]
effect on growth (tumor volume) of MDA-MB-231 xenografts [5]: did not affect the growth
effect on growth (tumor volume) of T47D xenografts [7]: prevented growth
effect on growth (tumor volume) of tamoxifen-resistant MCF-7 subline xenografts [9]: only minimally effective
users in whom uterine cancer is caused (side effect) [12]: 0.2%
effect on estrogen-dependent growth (tumor volume) of MCF-7 xenografts [4]: no increase in tumor volume
